Values joined by “and” are separate entries in the source; they are usually repeats but may differ in a detail not shown here. Identical values can stand only once.
Experiments:
rat heart = assay: Rat-Langendorff model (isolated perfused heart, ischaemia/reperfusion); conditions: individual rat hearts; for EDP: Degree of normalisation of EDP during reperfusion (amount above baseline EDP): 0 = recuperation to baseline EDP; for IC: Ischemic contracture: 4 μg/500 ml buffer, 20 min ischaemia; for Vfib: Number of ventricullar fibrillations during reperfusion: 40 min reperfusion
Description: A rat heart is rapidly dissected, attached by the aorta to a cannula and perfused with a physiological buffer (modified Krebs-Henseleit buffer: NaCl 118 mmol/l, KCl 4.7 mmol/l, MgSO4 1.2 mmol/l, KH2PO4 1.2 mmol/l, CaCl2 1.8 mmol/l, NaHCO3 23 mmol/l, glucose 11 mmol/l) without blood under 80 mmHg perfusion pressure. Oxygen is dissolved in the physiological buffer. The heart is paced atrially at 350 beats per minute. A balloon that can be optionally filled (adjustment preload) is inserted into the left ventricle. Diastolic pressure and the pressure developped are measured as well as the maximal rate of pressure development as a measure of contractility (inotropism) and the minimal rate of pressure decay as a measure of relaxation. Advantages of this model are: the heart is isolated and studied in controlled circumstances without interaction with other organs and the method is reasonably rapid and cheap. Disadvantages are: no blood perfusion, with only dissolved oxygen, therefore greater coronary flow rates with considerable vasodilatation of the coronary system; a closed system without metabolism and without interaction with other organs and a small animal model, relatively far away from clinical reality.
The study period of ischaemia is 20 minutes. The measurements after the study period of ischaemia (reperfusion phase) always last 40 minutes. Measurements before the study period of ischaemia last 30 minutes and are performed after stabilization. In the ischaemic preconditioning group the following is measured during these 30 minutes: 10 minutes baseline, 5 minutes ischaemia, 5 minutes reperfusion, 5 minutes ischaemia and 5 minutes reperfusion. In the group of the compounds according to the invention (4 μg/500 ml buffer solution) there is first 15 minutes baseline followed by 15 minutes treatment. Consequently, everything is time-matched.

[1] = system: sheep heart (left ventricle); assay: Sheep model (normothermic myocardial ischaemia during extra corporal circulation); type: in vivo
Description: The model is a sheep anaesthetized with ketamine and isoflurane. The extra corporal circulation is connected by venous cannulation of both caval veins and arterial cannulation via the carotid. An additional cannula with flow meter in the right ventricle gives the flow rate over the coronary arteries. In addition to measurements of heart rate and arterial blood pressure, the left ventricle instantaneous pressure is measured as well as the left ventricle volumes via a conductance catheter. There is also a side-tubing on the arterial cannula of the artificial heart leading to the pulmonary artery. Via this route it is possible to modulate the left ventricle preload in a perfectly controlled manner in order to obtain load-independent measurements of the left ventricle contractility before and after the study period of ischaemia. Cardiac oxygen consumption was also measured as well as regional perfusion with the aid of coloured microspheres.
The study period of ischaemia was 30 minutes while the heart remained normothermic and was fully unloaded by the extra corporal circulation and venting of the ventricles. The control group was time-matched with the other groups. The ischaemic preconditioning group was subjected to 3 times 5 minutes of preconditioning ischaemia with 5 minute reperfusion intervals. In the three groups extra corporal circulation was started 30 minutes before the study period of ischaemia was imposed. The extra corporal circulation was stopped 40 minutes after the end of the study period of ischaemia. […] Only these four will be processed here. In the other groups, 7 experiments are always processed. Before each measurement of pressure-volume ratios in the left ventricle the system was switched to the right heart bypass model in which the venous flow is diverted into the extra corporal circulation via the caval veins and the blood is returned to the sheep via the pulmonary artery.

[2] = target: cloned human μ opioid receptor (Homo sapiens, UniProt P35372); assay: Radioligand binding, competition with [3H]DAMGO; conditions: read-out: Agonist receptor binding (pIC50) mu (converted)
Sequence of cloned human μ opioid receptor (P35372 whole entry): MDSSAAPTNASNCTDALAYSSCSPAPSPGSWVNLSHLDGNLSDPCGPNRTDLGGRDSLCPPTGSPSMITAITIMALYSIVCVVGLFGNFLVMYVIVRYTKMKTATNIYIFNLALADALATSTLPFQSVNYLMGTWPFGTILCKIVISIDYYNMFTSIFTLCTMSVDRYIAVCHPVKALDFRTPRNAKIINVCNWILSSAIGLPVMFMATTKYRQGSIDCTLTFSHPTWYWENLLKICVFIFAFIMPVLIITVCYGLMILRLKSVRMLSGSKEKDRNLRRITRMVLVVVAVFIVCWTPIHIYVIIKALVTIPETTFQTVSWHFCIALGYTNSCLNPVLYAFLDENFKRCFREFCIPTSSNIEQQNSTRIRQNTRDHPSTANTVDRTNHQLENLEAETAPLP

| SMILES | melting point [°C] | Recup: % recuperation in developed pressure at the end of reperfusion (rat heart) | EDP: Degree of normalisation of EDP during reperfusion (amount above baseline EDP) (rat heart) | IC: Ischemic contracture (rat heart) | Vfib: Number of ventricullar fibrillations during reperfusion (rat heart) | also measured |
| --- | --- | --- | --- | --- | --- | --- |
| O=C(c1ccccc1)N1CCC(c2ccccc2)(c2nccn2Cc2ccccc2)CC1 [Compound 2] | 122.7 |  |  |  |  |  |
| CCOC(=O)N1CCC(c2ccccc2)(c2nccn2Cc2ccc(C(=O)OC)cc2)CC1 [Compound 3] | 149.1 |  |  |  |  |  |
| CCN/C(=N/C#N)N1CCC(c2ccccc2)(c2nccn2Cc2ccccc2)CC1 [Compound 4] | 84.2 |  |  |  |  |  |
| CC(C)OC(=O)N1CCC(c2ccccc2)(c2nccn2Cc2ccccc2)CC1 [Compound 25] |  | 79% and 85% and 75% | +6 mmHg (2×) and +10 mmHg | 5 mmHg and 7 mmHg (2×) | 0 and 1 (short) and 2 (short) |  |
| CCOC(=O)N1CCC(c2ccccc2)(c2nccn2Cc2ccccc2)CC1 [Compound 1, ethyl 4-phenyl-4-[1-(phenylmethyl)-1H-imidazol-2-yl]-1-piperidinecarboxylate] |  | 92% and 85% and 82% | 0 mmHg and +7 mmHg and +8 mmHg | 4 mmHg and 6 mmHg and 8 mmHg | 0 (2×) and 1 (short) | Tau (ventricular relaxation) ([1]; compared to control group 70 and 100 minutes after end of ischaemia): significantly lower; Preload recruitable stroke work (PRSW) ([1]; compared to control group after 70 and 100 minutes of reperfusion): significantly better; Cardiac flow after reperfusion ([1]; compared to control group, no significant difference): tendency for cardiac flow to be higher; Contractile efficacy (O2-consumption converted into PVA) ([1]; control group 32.8%, ischaemic preconditioning group 44.5%, p<0.001): 46.7% |
| CCCOC(=O)N1CCC(c2ccccc2)(c2nccn2Cc2ccccc2)CC1 [Compound 24] |  | 91% and 85% and 87% | 0 mmHg and +5 mmHg and +7 mmHg | 10 mmHg and 5 mmHg and 7 mmHg | 0 (2×) and 1 (short) |  |
| CCOC(=O)N1CCC(c2ccccc2)(c2nccn2Cc2ccc(C(=O)O)cc2)CC1 [Compound 8] | 251.6 |  |  |  |  |  |
| COC(=O)c1ccc(Cn2ccnc2C2(c3ccccc3)CCN(c3nc4ccccc4o3)CC2)cc1 [Compound 102] |  |  |  |  |  | IC50 [2]: > 1000 nM |

— patent US7390822B2, “Substituted 4-phenyl-4-[1H-imidazol-2-yl]-piperidine derivatives for reducing ischaemic damage” (Janssen Pharmaceutica, N.V., priority 2001, dated 2008)
